Counter-ions that a name gives are not always drawn.
How the values were obtained:
Format in all cases: in vivo
[1] = phenylbenzoquinone (PBQ) writhing method (analgesia in mice, Sigmund et al); conditions: for ED50: Mus musculus
Experimental: (§1) Analgesia was assessed in mice utilizing the hot plate method of Eddy and Leimbach, Journal Pharmacology Expt. Therap., 107, 385, 1953, and/or the phenylbenzoquinone writhing method described by Sigmund et al, Proc. Soc. Exptl. Biol. Med., 95, 729, 1957. The hot plate method is based upon the delay in reaction time, following administration of an active analgesic when animals are placed on a heated […] plate maintained at constant temperature. Thus, the numbers of mice showing elevation of response times over control values after administration of various doses of an unknown compound are used to determine the median effective dose (ED50), which is that dose affecting 50% of the animals. The writhing method is based upon inhibition by an analgesic of the response which occurs when the chemical agent phenylbenzoquinone is injected intraperitoneally. This response is characterized by a twisting or stretching of the body and is referred to as writhing. Following administration of an analgesic or unknown compound into mice, the numbers of animals not responding to the phenylbenzoquinone challenge by writhing are determined.

[2] = tested on: arrhythmia produced in dogs or cats by ouabain; experiment: anti-arrhythmic activity: preventing or reversing the arrhythmia produced by ouabain; conditions: for Arrhythmia Reversal Time: ouabain arrhythmia
Experimental: Anti-arrhythmic activity was determined by measuring the effect of the test compound in preventing or reversing the arrhythmia produced in dogs or cats by ouabain. In the test method, the animal was pretreated with 10 mg/kg (i.v.) of the test compound. The animal was then given 15 micrograms/kg of ouabain (i.v.) followed by doses of 10 micrograms/kg of ouabain at 15-minute intervals (the last dose of ouabain could be less than 10 micrograms/kg) until an arrhythmia was produced which lasted for 10 minutes. The animal was then given 5 mg/kg (i.v.) of test compound. If the arrhythmia was not reversed after 3 minutes, 1 mg/kg of xylocaine was given (i.v.) to reverse the arrhythmia. If the arrhythmia was reversed within 3 minutes by the test compound, the period of time during which the test compound effected reversal was measured (Arrythmia Reversal Time).

[3] = hot plate method (analgesia in mice, Eddy and Leimbach); conditions: Mus musculus
Experimental: as §1

[4] = tested on: arrhythmia produced in dogs or cats by ouabain; experiment: anti-arrhythmic activity: preventing or reversing the arrhythmia produced by ouabain; conditions: amount compound 4 mg/kg
[5] = po, mice, phenylbenzoquinone writhing, oral route, read-out: Analgesic Tests ED50 PBQ P.O.
[6] = sc, mice, phenylbenzoquinone writhing, subcutaneous route, read-out: Analgesic Tests ED50 PBQ S.C.
[7] = dogs or cats, amount compound 5 mg/kg
[8] = ouabain given i.v. until an arrhythmia lasting 10 minutes, after 10 mg/kg i.v. pretreatment with test compound
[9] = mice, phenylbenzoquinone writhing, oral route
[10] = mice, phenylbenzoquinone writhing, subcutaneous route
[11] = ip, mice, intraperitoneal route, read-out: Analgesic Tests ED50 Hot Plate I.P.
[12] = mice, oral route, read-out: Analgesic Tests ED50 Hot Plate P.O.

| SMILES | ED50 [1, 5] | ED50 [1, 6] | further results |
| --- | --- | --- | --- |
| CC(N)C1(O)CCCCC1c1ccccc1.Cl (stereo not drawn) [Example XXIII, 1-(1-Aminoethyl)-2-phenylcyclohexanol hydrochloride] | > 100 mg/kg | > 30 mg/kg | Arrhythmia Reversal Time [2, 7]: 5 min; Amount Ouabain [2, 8]: 95 µg/kg |
| CNC(C)C1(O)CCCCC1c1ccccc1.Cl (stereo not drawn) [XXIV, 1-(1-Methylaminoethyl)-2-phenylcyclohexanol hydrochloride] | > 100 mg/kg | > 30 mg/kg | prevention of arrhythmia by pretreatment ([2]; dogs or cats, 10 mg/kg pretreatment, then ouabain): prevented arrhythmia; Amount Ouabain [2, 8]: 140 µg/kg |
| COc1ccc(C2CCCCC2(O)C(C)CN(C)C)cc1.Cl (stereo not drawn) [Example XVII, 1-(2-Dimethylamino-1-methylethyl)-2-(p-methoxyphenyl)-cyclohexanol hydrochloride] | > 100 mg/kg | > 30 mg/kg | Arrhythmia Reversal Time [2, 7]: 30 min; Amount Ouabain [2, 8]: 80 µg/kg |
| CC(=O)OC1(C(C)CN2CCOCC2)CCCCC1c1ccccc1.Cl (stereo not drawn) [XIX, 1-(1-Methyl-2-morpholinoethyl)2-phenylcyclohexyl acetate hydrochloride] | 40 mg/kg | 56.2 mg/kg | – |
| CC(CN1CCCC1)C1(O)CCCCC1c1ccccc1 (stereo not drawn) [Example III, 1-(1-Methyl-2-pyrrolidinoethyl)-2-phenylcyclohexanol] | > 100 mg/kg | ~30 mg/kg | Arrhythmia Reversal Time [2, 7]: 5 min; Amount Ouabain [2, 8]: 100 µg/kg |
| CC(=O)OC1(C(C)CN(C)C)CCCCC1c1ccc(O)cc1.Cl (stereo not drawn) [XXXI, 1-(2-Dimethylamino-1-methylethyl)-2-(p-hydroxyphenyl)cyclohexyl acetate hydrochloride] | > 100 mg/kg | > 100 mg/kg | – |
| CN(C)CCC1(O)CCCCC1c1ccccc1 (stereo not drawn) [Example XIV, 1-(2-Dimethylaminoethyl)-2-phenylcyclohexanol] | > 100 mg/kg | ~30 mg/kg | – |
| C=CCN(CC=C)CC(C)C1(OC(C)=O)CCCCC1c1ccccc1 (stereo not drawn) [Example XVI, 1-(2-Diallylamino-1-methylethyl)-2-phenylcyclohexyl acetate] | > 30 mg/kg | > 3 mg/kg | – |
| CCN(CC)CC(=O)Nc1c(C)cccc1C [Lidocaine, reference compound] | – | – | Amount Ouabain ([2]; control (Lidocaine) line): 60 to 130 µg/kg; Arrhythmia Reversal Time ([2]; dogs or cats, control, amount compound 1-2 mg/kg): 1 to 3 min |
| CC(=O)OC1(C(C)N(C)C)CCCCC1c1ccccc1 (stereo not drawn) [XXVIII, 1-(1-Dimethylaminoethyl)-2-phenylcyclohexyl acetate cyclohexylsulfamate] | > 30 mg/kg | > 10 mg/kg | – |
| CC(=O)OC1(C(C)CN(C)C)CCCCC1c1ccccc1 (single isomer, unassigned; (+)) [Example X, (+)-1-(2-Dimethylamino-1-methylethyl)-2-phenylcyclohexyl acetate] | – | – | Analgesic Tests ED50 PBQ P.O. [1, 9]: > 100 mg/kg; Analgesic Tests ED50 PBQ S.C. [1, 10]: 16.5 mg/kg |
| CC(=O)OC1(C(C)CN2CCN(c3ccccc3)CC2)CCCCC1c1ccccc1.Cl (stereo not drawn) [Example XXI, 1-(1-Methyl-2-[4-phenyl-1-piperazinyl]ethyl)-2-phenylcyclohexyl acetate hydrochloride] | 5.9 mg/kg | > 100 mg/kg | – |
| CC(=O)OC1(CCN(C)C)CCCCC1c1ccccc1 (stereo not drawn) [Example XV, 1-(2-Dimethylaminoethyl)-2-phenylcyclohexyl acetate cyclohexylsulfamate] | > 30 mg/kg | > 10 mg/kg | – |
| CNCC(C)C1(O)CCCCC1c1ccccc1.Cl (stereo not drawn) [Example XXVI, 1-(2-Methylamino-1-methylethyl)-2-phenylcyclohexanol hydrochloride] | > 30 mg/kg | > 10 mg/kg | – |
| CCC(=O)OC1(C(C)CN(C)C)CCCCC1c1ccccc1 (single isomer, unassigned) [Example I (a), 1-(2-Dimethylamino-1-methylethyl)-2-phenylcyclohexyl propionate maleate (Major Isomer)] | 100 mg/kg | – | ED50 [3, 11]: > 40 mg/kg; ED50 [3, 12]: > 100 mg/kg |
| CN1CC[C@]23c4c5ccc(O)c4O[C@H]2[C@@H](O)C=C[C@H]3[C@H]1C5 [Morphine, reference compound] | – | – | ED50 ([3]; ip, read-out: Analgesic Tests ED50 Hot Plate I.P.): 1.8 mg/kg; ED50 ([3]; po, read-out: Analgesic Tests ED50 Hot Plate P.O.): 18 mg/kg; ED50 ([1]; po, read-out: Analgesic Tests ED50 PBQ P.O.): 2.6 mg/kg; ED50 ([1]; sc, read-out: Analgesic Tests ED50 PBQ S.C.): 0.5 mg/kg |
| CC(=O)OC1(C(C)CN(C)C)CCCCC1c1ccccc1 (single isomer, unassigned; (-)) [Example IX, (-)-1-(2-Dimethylamino-1-methylethyl)-2-phenylcyclohexyl acetate] | – | – | Analgesic Tests ED50 PBQ P.O. [1, 9]: 16 mg/kg; Analgesic Tests ED50 PBQ S.C. [1, 10]: 2.15 mg/kg |
| CCOC(=O)C1(c2ccccc2)CCN(C)CC1 [Meperidine, reference compound] | 18 mg/kg | 1.7 mg/kg | ED50 [3, 11]: 5.8 mg/kg; ED50 [3, 12]: 81 mg/kg |
| C=CCN(C)CC(C)C1(OC(C)=O)CCCCC1c1ccccc1 (stereo not drawn) [XIII, 1-(2-Allylmethylamino-1-methylethyl)-2-phenylcyclohexyl acetate] | ~100 mg/kg | ~30 mg/kg | – |
| COc1ccc(C2CCCCC2(O)C(C)CN(C)C)cc1OC (stereo not drawn) [XXXII, 2-(3,4-Dimethoxyphenyl)-1-(2-dimethylamino-1-methylethyl)cyclohexanol p-toluenesulfonate] | > 100 mg/kg | ~30 mg/kg | – |
| COc1ccc(C2CCCCC2(OC(C)=O)C(C)CN(C)C)cc1OC.Cl (stereo not drawn) [XXXIII, 2-(3,4-Dimethoxyphenyl)-1-(2-dimethylamino-1-methylethyl)cyclohexyl acetate hydrochloride] | > 100 mg/kg | > 30 mg/kg | Arrhythmia Reversal Time [2, 7]: 30 min; Amount Ouabain [2, 8]: 70 µg/kg |
| CC(N(C)C)C1(O)CCCCC1c1ccccc1.Cl (stereo not drawn) [Example XXVII, 1-(1-Dimethylaminoethyl)-2-phenylcyclohexanol hydrochloride] | > 100 mg/kg | > 100 mg/kg | – |
| CC(CN(C)C)C1(O)CCCCC1c1ccc(O)cc1 (stereo not drawn) [Example XXX, 1-(2-Dimethylamino-1-methylethyl)-2-(p-hydroxyphenyl)-cyclohexanol] | > 100 mg/kg | > 30 mg/kg | – |
| CC(CN(C)C)C1(O)CCCCC1c1ccccc1 (stereo not drawn) [Example XI, 1-(2-Dimethylamino-1-methylethyl)-2-phenylcyclohexanol-p-toluenesulfonate] | 56 mg/kg | – | ED50 [3, 11]: 32 mg/kg; ED50 [3, 12]: 56 mg/kg; Amount Ouabain [2, 8]: 88 µg/kg; Arrhythmia Reversal Time [4]: 5 min |
| COc1ccc(C2CCCCC2(OC(C)=O)C(C)CN(C)C)cc1 (stereo not drawn) [Example XXV, 1-(2-Dimethylamino-1-methylethyl)-2-(p-methoxyphenyl)-cyclohexylacetate hydrochloride] | > 100 mg/kg | > 30 mg/kg | – |
| CC(=O)OC1(C(C)CN(C)C)CCCCC1c1ccccc1 (single isomer, unassigned) [Example I (c), 1-(2-Dimethylamino-1-methylethyl)-2-phenylcyclohexyl acetate maleate (Major Isomer)] | – | – | ED50 [3, 11]: 10 mg/kg; ED50 [3, 12]: 40 mg/kg; Analgesic Tests ED50 PBQ P.O. [1, 9]: 20 mg/kg; Analgesic Tests ED50 PBQ S.C. [1, 10]: 3.8 mg/kg; Amount Ouabain [2, 8]: 85 µg/kg; Arrhythmia Reversal Time [4]: 30 min |
| CC(=O)OC1(C(C)CN2CCCC2)CCCCC1c1ccccc1.O=S(=O)(O)O (stereo not drawn) [Example XXII, 1-(1-Methyl-2-pyrrolidinoethyl)-2-phenylcyclohexyl acetate sulfate] | > 30 mg/kg | ~10 mg/kg | – |
| CC(=O)OC1(C(C)CN2CCCCC2)CCCCC1c1ccccc1.Cl (stereo not drawn) [XII, 1-(1-Methyl-2-piperidinoethyl)-2-phenylcyclohexyl acetate hydrochloride] | ~60 mg/kg | ~30 mg/kg | – |

Reference: US3974157A, “1-(Amino-alkyl)-2-aryl-cyclohexane alcohols and esters” (Pennwalt Corporation, priority 1975, dated 1976)
